Test results: article PMC8287028 (Frontiers in Veterinary Science, 2021)
“And” between values parts separate entries of the source, which are not always exact repeats. Equal entries are not always repeated.

Columns and labels:
healthy mixed-breed dogs = assay: Serum biochemistry profile before and after apixaban; format: in vivo, dog; set-up: TP / Bicarbonate: unit not given beside the values; Calcium / Magnesium / Globulin / ALT / AST / GGT / T.bili / Sodium / BUN / Creatinine: unit not given here; conditions: for ALT / AST / Albumin / BUN / Bicarbonate / Calcium / Creatinine / GGT / Globulin / Magnesium / Sodium / T.bili / TP / Amylase / Cholesterol / Glucose / Phosphate / Potassium / TIBC: individual dogs (Dog 1-6); for Amylase: in U/L (unit assumed); for TIBC: in µg/dL (unit assumed)
Procedure: Catheters were flushed with 0.9% saline, without heparin.
Pairwise comparisons between continuous variables were conducted with Wilcoxon matched-pairs signed rank test, while comparisons of more than two groups were conducted using the Friedman test with Dunn's post-hoc adjustment. […] Comparisons of pharmacodynamic variables between baseline values and those at discrete sampling intervals were performed using the Friedman test with Dunn's post-hoc correction for multiple comparisons. […] Alpha was set at 0.05. Statistical analyses were performed using commercial software (Prism 9, GraphPad, La Jolla, CA).

[1] = Pharmacokinetics after oral apixaban capsules, plasma concentrations by LC/MS; conditions: for AUC: AUC (area-under-the-curve); for Cmax: CMax (peak concentration); for bioavailability: F% (fraction of oral dose absorbed, bioavailability); for half-life: K10 T½ (apparent elimination half-life); for Vd/F: V/F (volume of distribution per fraction absorbed)
Text: Additionally, drug metabolism might be different in beagles compared with mixed-breed dogs ([33], [34]). […] The study was approved by the Institutional Animal Care and Use Committee (IACUC) at Cornell University College of Veterinary Medicine (Protocol #2019-0099). All dogs were housed at Cornell University and cared for by licensed veterinarians and technicians according to established protocols. All dogs were permanently adopted into private homes after study completion.
To achieve uniform dosing, custom IV (2.5 mg/ml) and oral capsule formulations were created. The protocol for generation of the IV formulation was as previously published ([25]), and all procedures were performed in a laminar flow hood under strict aseptic conditions. […] After vortexing, the formulation was aseptically filtered (Corning 0.22 μm cellulose acetate filter, Millipore-Sigma) then drawn into 10 ml syringes (BD, Franklin Lakes, NJ). The IV formulation was prepared 1 h before administration and stored in the dark at 20-25°C. […] All injection durations were identical. Separately, all dogs received bodyweight appropriate capsule size to provide ~0.2 mg/kg PO once. Capsules were administered without food and witnessed to be ingested. A minimum washout period of 2 weeks elapsed between initial PO administration and subsequent IV administration. The maximum duration of capsule storage prior to administration was 76 days.
On the days of drug administration, 5 Fr × 25 cm trilumen wire-guided catheters (Mila International, Erlanger, KY) were aseptically placed in external jugular veins by modified-Seldinger technique to facilitate atraumatic, repeat blood sample collection. Dogs were sedated with IV butorphanol 0.2 mg/kg and dexmedetomidine 5 μg/kg (Zoetis, Parsippany, NJ) to facilitate catheter placement. Jugular catheters were secured using 3-0 nylon sutures, protected with sterile bandages, and flushed with 0.9% saline (no heparin was used). Dogs were allowed to recover fully from sedation prior to drug administration. […] Catheters were flushed with 0.9% saline, without heparin. Samples were also drawn into K2-EDTA and no-additive tubes at baseline and 24 h post-administration for complete blood counts and serum biochemistry profiles. Dogs were closely monitored for adverse reactions throughout the sample collection period. […] After each sample collection, one citrate anticoagulated whole blood sample was analyzed using thromboelastography (TEG), while the second citrate sample was centrifuged (1,370 g, 10 min, 20°C), the plasma separated, split into two aliquots and then frozen at −80°C pending batch analyses.
In brief, proteins in the sample were initially precipitated by combining 100 μl of plasma sample with 200 μl of 0.1 M ZnSO4 solution and 700 μl of isotope standard stock solution, mixing in a vortex device for 5 s followed by centrifugation (14,000 g, 5 min, RT). The supernatant was added to glass autosampler vials and an aliquot injected into the liquid chromatography 2D UPLC system (Waters Acquity UPLC H-class with 2D Technology System). Sample extraction was performed using a 2.1 × 30 mm reverse phase cartridge (column 1, Waters, XBridge C8, 10 μm) followed by an analytical separation on a 2.1 × 50 mm reverse phase column (column 2, Waters, Acquity UPLC BEH C18, 1.7 μm) and an elution with a linear gradient using water containing 0.1% formic acid and 2 mmol/L ammonium acetate and methanol containing 0.1% formic acid and 2 mmol/L ammonium acetate. […] A 10-point calibration curve was generated with concentrations ranging from 1 to 1,000 ng/ml, with three quality control samples at each of three concentrations (low, 2.5 ng/ml; medium, 50 ng/ml; high, 500 ng/ml).
Where C is the plasma drug concentration, V is the volume of distribution, D is the dose, K10 is the first order elimination rate constant, and T is time. Secondary parameters included area-under-the curve (AUC), systemic clearance (CL), and half-life.

prothrombin time = conditions: in vitro, dog plasma fortified with apixaban; cited from earlier work
[2] = +24h after IV apixaban, in mg/dL (unit assumed)
[3] = +30h after PO apixaban, in mg/dL (unit assumed)
[4] = +30h after PO apixaban, in mmol/L (unit assumed)
[5] = both, mixed-breed, dog, plasma, po, 0.2 mg/kg, dogs, mean dose 0.2 mg/kg, geometric mean, n = 5
[6] = both, mixed-breed, dog, plasma, po, 0.2 mg/kg, dogs, mean dose 0.2 mg/kg, mean, n = 5
[7] = dogs, PO, mean dose 0.2 mg/kg, model fit, individual dogs (Dog 1-5), 0.2 mg/kg
[8] = dogs, PO, mean dose 0.2 mg/kg, geometric mean, n = 5
[9] = dogs, PO, mean dose 0.2 mg/kg, individual dogs (Dog 1-5), 0.2 mg/kg
[10] = dogs, PO, mean dose 0.2 mg/kg, mean, n = 5

COc1ccc(-n2nc(C(N)=O)c3c2C(=O)N(c2ccc(N4CCCCC4=O)cc2)CC3)cc1 [apixaban]
ALT (healthy mixed-breed dogs; +24h after IV apixaban): 45 (2×) and 114 and 30 (2×) and 86
AST (healthy mixed-breed dogs; +24h after IV apixaban): 34 and 44 and 21 and 32 (2×) and 31
Albumin (healthy mixed-breed dogs; +24h after IV apixaban): 3.9 and 3.4 (2×) and 3.5 and 3.7 and 3.8
BUN (healthy mixed-breed dogs; +24h after IV apixaban): 16 (2×) and 19 and 30 and 20 and 21
Bicarbonate (healthy mixed-breed dogs; +24h after IV apixaban): 23 and 18 (2×) and 21 and 19 (2×)
Calcium (healthy mixed-breed dogs; +24h after IV apixaban): 10.0 (2×) and 8.9 and 10.2 and 9.9 and 9.6
Creatinine (healthy mixed-breed dogs; +24h after IV apixaban): 0.8 and 0.7 (2×) and 1 (2×) and 0.9
GGT (healthy mixed-breed dogs; +24h after IV apixaban): 2 (3×) and 3 (2×) and 6
Globulin (healthy mixed-breed dogs; +24h after IV apixaban): 2.3 and 2.1 (2×) and 2.4 and 2.0 (2×)
Magnesium (healthy mixed-breed dogs; +24h after IV apixaban): 1.8 (2×) and 1.6 and 1.7 (3×)
Sodium (healthy mixed-breed dogs; +24h after IV apixaban): 147 and 146 (3×) and 149 and 148
T.bili (healthy mixed-breed dogs; +24h after IV apixaban): 0.0 (4×) and 0.1 (2×)
TP (healthy mixed-breed dogs; +24h after IV apixaban): 6.2 and 5.5 and 5.8 (2×) and 5.6 and 5.7
Amylase (healthy mixed-breed dogs; +24h after IV apixaban): 467 and 362 and 561 and 514 and 451 and 707
Cholesterol (healthy mixed-breed dogs; [2]): 174 and 180 and 226 and 129 and 127 and 173
Glucose (healthy mixed-breed dogs; [2]): 58 and 39 and 93 and 100 and 85 and 52
Phosphate (healthy mixed-breed dogs; [2]): 3.9 and 3.7 and 3.3 and 4.4 and 3.6 and 4.1
Potassium (healthy mixed-breed dogs; +24h after IV apixaban, in mmol/L (unit assumed)): 4.5 and 4.2 and 4.4 and 4.3
TIBC (healthy mixed-breed dogs; +24h after IV apixaban): 391 and 352 and 385 and 345 and 313 and 356
ALT (healthy mixed-breed dogs; +30h after PO apixaban): 26 (2×) and 33 and 36 and 39 and 35
AST (healthy mixed-breed dogs; +30h after PO apixaban): 34 and 22 and 32 (2×) and 45 and 33
Albumin (healthy mixed-breed dogs; +30h after PO apixaban): 3.9 and 3.6 (2×) and 3.4 and 3.5 (2×)
BUN (healthy mixed-breed dogs; +30h after PO apixaban): 19 (2×) and 12 and 10 and 18 and 24
Calcium (healthy mixed-breed dogs; +30h after PO apixaban): 10.2 (2×) and 9.7 (3×) and 9.8
Creatinine (healthy mixed-breed dogs; +30h after PO apixaban): 0.9 and 0.8 (2×) and 0.6 and 0.7 and 1
GGT (healthy mixed-breed dogs; +30h after PO apixaban): 0 (2×) and 4 (2×) and 6 (2×)
Globulin (healthy mixed-breed dogs; +30h after PO apixaban): 2.1 (3×) and 2.5 and 2 and 2.3
Magnesium (healthy mixed-breed dogs; +30h after PO apixaban): 1.7 (5×) and 1.8
Phosphate (healthy mixed-breed dogs; +30h after PO apixaban): 2.8 and 3.9 (2×) and 3.7 (2×) and 3.8
Sodium (healthy mixed-breed dogs; +30h after PO apixaban): 147 (4×) and 150 and 146
T.bili (healthy mixed-breed dogs; +30h after PO apixaban): 0.1 (4×) and 0.0 (2×)
Amylase (healthy mixed-breed dogs; +30h after PO apixaban): 469 and 325 and 515 and 494 and 353 and 638
TP (healthy mixed-breed dogs; +30h after PO apixaban, in g/dL (unit assumed)): 6 and 5.7 and 6.1 and 5.4 and 5.8 and 5.6
Cholesterol (healthy mixed-breed dogs; [3]): 198 and 192 and 244 and 106 and 162 and 186
Glucose (healthy mixed-breed dogs; [3]): 77 and 93 and 76 and 78 and 102 and 87
Bicarbonate (healthy mixed-breed dogs; [4]): 22 and 20 and 17 and 18 and 14 and 19
Potassium (healthy mixed-breed dogs; [4]): 4.3 and 4.5 and 3.9 and 4.9 and 4.6 and 4.8
TIBC (healthy mixed-breed dogs; +30h after PO apixaban): 391 and 331 and 372 and 288 and 336 and 329
chloride and GGT, baseline versus 24 h post-injection (healthy mixed-breed dogs; IV): statistically significant reductions
biochemical parameters (healthy mixed-breed dogs; PO, baseline versus 30 h post-dose): no changes
mean maximum observed plasma concentration (CMax) ([1]; both, mixed-breed, dog, in vivo, po): 176 ± 126 ng/mL
CL/F ([1]; both, mixed-breed, dog, in vivo, po, 0.2 mg/kg): 1.88 mL/min/kg
AUC [1, 5]: 1770 ng·h/mL
AUC [1, 6]: 1950 ng·h/mL
CL/F ([1]; both, mixed-breed, dog, plasma, po, 0.2 mg/kg, CL/F (systemic clearance per fraction absorbed), dogs, mean dose 0.2 mg/kg, mean, n = 5): 2.08 mL/min/kg
Cmax ([1]; both, mixed-breed, dog, plasma, po, 0.2 mg/kg, dogs, mean dose 0.2 mg/kg, model fit, geometric mean, n = 5): 196 ng/mL
Cmax ([1]; both, mixed-breed, dog, plasma, po, 0.2 mg/kg, dogs, mean dose 0.2 mg/kg, model fit, mean, n = 5): 223 ng/mL
bioavailability ([1]; both, mixed-breed, dog, plasma, po, 0.2 mg/kg, dogs, PO 0.2 mg/kg vs IV 0.18 mg/kg, geometric mean, n = 5): 24.1%
bioavailability ([1]; both, mixed-breed, dog, plasma, po, 0.2 mg/kg, dogs, PO 0.2 mg/kg vs IV 0.18 mg/kg, mean, n = 5): 28.4%
half-life [1, 5]: 3 h
half-life ([1]; both, mixed-breed, dog, plasma, po, 0.2 mg/kg, dogs, mean dose 0.2 mg/kg, individual dogs (Dog 1-5)): 3.8 h
half-life [1, 6]: 3.1 h
TMax ([1]; both, mixed-breed, dog, plasma, po, 0.2 mg/kg, TMax, dogs, mean dose 0.2 mg/kg, model fit, geometric mean, n = 5): 5 h
TMax ([1]; both, mixed-breed, dog, plasma, po, 0.2 mg/kg, TMax, dogs, mean dose 0.2 mg/kg, model fit, individual dogs (Dog 1-5)): 3.5 h
Vd/F [1, 5]: 0.492 L/kg
Vd/F [1, 6]: 0.534 L/kg
F% (fraction of oral dose absorbed, bioavailability) ([1]; dogs, PO 0.2 mg/kg vs IV 0.18 mg/kg, individual dogs (Dog 1-5)): 35.0% and 51.5% and 15.0% and 10.0% and 30.4%
residual plasma concentrations ([1]; dogs, PO 0.2 mg/kg, quantifiable at the 24-h time point): declined to below the level of quantitation by the 30-h time point
AUC (area-under-the-curve) ([1]; dogs, PO capsule, mean dose 0.2 mg/kg, fasted, individual dogs (Dog 1-5), 0.2 mg/kg): 2,082.4 h*ng/ml and 2,396.3 h*ng/ml and 1,335.5 h*ng/ml and 863.4 h*ng/ml and 3,051.2 h*ng/ml
CMax (peak concentration) [1, 7]: 236.2 ng/mL and 294.3 ng/mL and 165.1 ng/mL and 71.4 ng/mL and 348.5 ng/mL
TMax [1, 7]: 4.4 h and 4.9 h and 6.3 h and 6.1 h
TMax (time to CMax) ([1]; dogs, PO, mean dose 0.2 mg/kg, model fit, mean, n = 5, 0.2 mg/kg): 5 h
K01 (first order absorption rate) [1, 8]: 0.4 h⁻¹
K10 (first order elimination rate) [1, 8]: 0.2 h⁻¹
TLag (lag time for capsule dissolution and stomach emptying) [1, 8]: 1.8 h
CL/F (systemic clearance per fraction absorbed) [1, 9]: 1.64 mL/min/kg and 1.33 mL/min/kg and 2.597 mL/min/kg and 3.668 mL/min/kg and 1.15 mL/min/kg
K01 (first order absorption rate) [1, 9]: 0.7 h⁻¹ and 0.5 h⁻¹ and 0.3 h⁻¹ and 0.2 h⁻¹ and 0.6 h⁻¹
K10 (first order elimination rate) [1, 9]: 0.2 1/h (4×) and 0.3 1/h
TLag (lag time for capsule dissolution and stomach emptying) [1, 9]: 0.9 h and 1.6 h and 1.9 h and 1.8 h and 3.4 h
V/F (volume of distribution per fraction absorbed) [1, 9]: 0.5407 L/kg and 0.3267 L/kg and 0.4659 L/kg and 0.9747 L/kg and 0.3612 L/kg
K01 (first order absorption rate) [1, 10]: 0.5 h⁻¹
K10 (first order elimination rate) [1, 10]: 0.2 h⁻¹
TLag (lag time for capsule dissolution and stomach emptying) ([1]; dogs, PO, mean dose 0.2 mg/kg, mean, n = 5, 0.2 mg/kg): 2 h and 2.0 h
time of mean maximum observed plasma concentration ([1]; dogs, single oral dose 0.20 mg/kg, post-dosing, observed): 6 h
concentration required to double the prothrombin time (prothrombin time): 3,079 ng/ml and 6.7 μM
